Measurements: patent publication US9556147B2 (Hoffmann-La Roche Inc., priority 2013, dated 2017)

Test system: B cell receptor-mediated activation of B cells in human whole blood (CD69 expression)
Assay: cells
Conditions: 20 h, read-out: HWB IC50
Description: After the incubation the plates were read on a BMG Pherastar Fluorescent plate reader (or equivalent) and used to measure the emission energy from the europium donor fluorophore (620 nm emission) and the FRET (665 nm emission). The negative control well values were averaged to obtain the mean minimum. The positive “no inhibitor” control wells were averaged to obtain the mean maximum. […] The mean IC50 and standard deviation will be derived from duplicate curves (singlet inhibition curves from two independent dilutions) using Microsoft Excel. Inhibition of B Cell Activation in Whole Blood Measured by CD69 Expression
Human whole blood (HWB) is obtained from healthy volunteers, with the following restrictions: 24 hr drug-free, non-smokers. Blood is collected by venipuncture into Vacutainer tubes anticoagulated with sodium heparin. Test compounds are diluted to ten times the desired starting drug concentration in PBS (20×), followed by three-fold serial dilutions in 10% DMSO in PBS to produce a nine point dose-response curve. […] HWB (100 μl) is added to each well, and after mixing the plates are incubated at 37 C, 5% CO2, 100% humidity for 30 minutes. […]
Using appropriate excitation and emission wavelengths for the fluorophores used, data are acquired and percent positive cell values are obtained using Cell Quest Software. Results are initially analyzed by FACS analysis software (Flow Jo).

Row | SMILES | IC50 [µM]
1 | CN1CCC[C@H]1c1ccc(Nc2cc3c(n(C)c2=O)CC(O)Cc2c-3cccc2-n2ncc3cc(C(C)(C)C)cc(F)c3c2=O)nc1 (some centres unmarked) [Compound 2] | 0.049
2 | Cn1c2c(cc(Nc3ccc(C(=O)N4CCOCC4)cn3)c1=O)-c1cccc(-n3ncc4cccc(F)c4c3=O)c1C[C@H](O)C2 [Compound 6] | 4.38
